Data as given in the supplement of paper PMC10307832.

Legend:
Experiment in all cases: relative viability (nuclei count vs DMSO), 5 days (fraction); higher = more cells survive
ABC-1 = system: ABC-1
Summary of the method: (§1)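 Values are medians from duplicate plates. Each reflects relative viability, defined as the nuclei count of treated wells over that of vehicle wells. Lung cancer cell lines in 1536-well plates were pin-tool dosed one day after seeding with one drug alone or with a fixed anchor-drug dose plus five library-drug doses (not always all listed) in √10 steps, then fixed, stained and imaged at 4× after 5 days.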

BEN = system: BEN
Summary of the method: as §1

EPLC-272H = system: EPLC-272H
Summary of the method: as §1

HCC-827 = system: HCC-827
Summary of the method: as §1

HOP-62 = system: HOP-62
Summary of the method: as §1

LU99A = system: LU99A
Summary of the method: as §1

NCI-H1355 = system: NCI-H1355
Summary of the method: as §1

NCI-H1666 = system: NCI-H1666
Summary of the method: as §1

NCI-H1792 = system: NCI-H1792
Summary of the method: as §1

NCI-H1975 = system: NCI-H1975
Summary of the method: as §1

NCI-H23 = system: NCI-H23
Summary of the method: as §1

NCI-H2405 = system: NCI-H2405
Summary of the method: as §1

NCI-H3122 = system: NCI-H3122
Summary of the method: as §1

NCI-H322M = system: NCI-H322M
Summary of the method: as §1

NCI-H358 = system: NCI-H358
Summary of the method: as §1

NCI-H520 = system: NCI-H520
Summary of the method: as §1

NCI-H596 = system: NCI-H596
Summary of the method: as §1

NCI-H647 = system: NCI-H647
Summary of the method: as §1

NCI-H727 = system: NCI-H727
Summary of the method: as §1

NCI-H838 = system: NCI-H838
Summary of the method: as §1

PC-14 = system: PC-14
Summary of the method: as §1

UMC-11 = system: UMC-11
Summary of the method: as §1

O=C(O)CCCCC(CCSCc1ccccc1)SCc1ccccc1 (stereo not given) [CPI-613] + C[C@]1(O)C[C@@H](c2nc(-c3ccc4ccc(-c5ccccc5)nc4c3)c3c(N)nccn32)C1 [Linsitinib] (partner 1 µM)
relative viability (ABC-1; first compound 5 µM): 0.744 | relative viability (ABC-1; first compound 15.81 µM): 1.02 | relative viability (ABC-1; first compound 50 µM): 0.815 | relative viability (ABC-1; first compound 158.11 µM): 0.254 | relative viability (ABC-1; first compound 500 µM): 0.169 | relative viability (BEN; first compound 5 µM): 0.881 | relative viability (BEN; first compound 15.81 µM): 0.784 | relative viability (BEN; first compound 50 µM): 0.941 | relative viability (BEN; first compound 158.11 µM): 0.747 | relative viability (BEN; first compound 500 µM): 0.72 | relative viability (EPLC-272H; first compound 5 µM): 1.21 | relative viability (EPLC-272H; first compound 15.81 µM): 1.15 | relative viability (EPLC-272H; first compound 50 µM): 1.05 | relative viability (EPLC-272H; first compound 158.11 µM): 0.759 | relative viability (EPLC-272H; first compound 500 µM): 0.698 | relative viability (HCC-827; first compound 5 µM): 0.967 | relative viability (HCC-827; first compound 15.81 µM): 0.892 | relative viability (HCC-827; first compound 50 µM): 0.906 | relative viability (HCC-827; first compound 158.11 µM): 0.613 | relative viability (HCC-827; first compound 500 µM): 0.0916 | relative viability (HOP-62; first compound 5 µM): 1.05 | relative viability (HOP-62; first compound 15.81 µM): 1.05 | relative viability (HOP-62; first compound 50 µM): 0.863 | relative viability (HOP-62; first compound 158.11 µM): 0.611 | relative viability (HOP-62; first compound 500 µM): 0.0257 | relative viability (LU99A; first compound 5 µM): 0.519 | relative viability (LU99A; first compound 15.81 µM): 0.461 | relative viability (LU99A; first compound 50 µM): 0.561 | relative viability (LU99A; first compound 158.11 µM): 0.273 | relative viability (LU99A; first compound 500 µM): 0.0476 | relative viability (NCI-H1355; first compound 5 µM): 0.78 | relative viability (NCI-H1355; first compound 15.81 µM): 0.825 | relative viability (NCI-H1355; first compound 50 µM): 0.856 | relative viability (NCI-H1355; first compound 158.11 µM): 0.477 | relative viability (NCI-H1355; first compound 500 µM): 0.103 | relative viability (NCI-H1666; first compound 5 µM): 0.783 | relative viability (NCI-H1666; first compound 15.81 µM): 0.907 | relative viability (NCI-H1666; first compound 50 µM): 0.789 | relative viability (NCI-H1666; first compound 158.11 µM): 0.172 | relative viability (NCI-H1666; first compound 500 µM): 0.167 | relative viability (NCI-H1792; first compound 5 µM): 0.514 | relative viability (NCI-H1792; first compound 15.81 µM): 0.49 | relative viability (NCI-H1792; first compound 50 µM): 0.56 | relative viability (NCI-H1792; first compound 158.11 µM): 0.411 | relative viability (NCI-H1792; first compound 500 µM): 0.512 | relative viability (NCI-H1975; first compound 5 µM): 0.938 | relative viability (NCI-H1975; first compound 15.81 µM): 1.03 | relative viability (NCI-H1975; first compound 50 µM): 1.13 | relative viability (NCI-H1975; first compound 158.11 µM): 0.541 | relative viability (NCI-H1975; first compound 500 µM): 0.0601 | relative viability (NCI-H23; first compound 5 µM): 0.596 | relative viability (NCI-H23; first compound 15.81 µM): 0.567 | relative viability (NCI-H23; first compound 50 µM): 0.395 | relative viability (NCI-H23; first compound 158.11 µM): 0.383 | relative viability (NCI-H23; first compound 500 µM): 0.0224 | relative viability (NCI-H2405; first compound 5 µM): 0.979 | relative viability (NCI-H2405; first compound 15.81 µM): 0.897 | relative viability (NCI-H2405; first compound 50 µM): 0.895 | relative viability (NCI-H2405; first compound 158.11 µM): 0.818 | relative viability (NCI-H2405; first compound 500 µM): 0.773 | relative viability (NCI-H3122; first compound 5 µM): 0.985 | relative viability (NCI-H3122; first compound 15.81 µM): 1.02 | relative viability (NCI-H3122; first compound 50 µM): 0.988 | relative viability (NCI-H3122; first compound 158.11 µM): 0.644 | relative viability (NCI-H3122; first compound 500 µM): 0.0543 | relative viability (NCI-H322M; first compound 5 µM): 0.832 | relative viability (NCI-H322M; first compound 15.81 µM): 0.721 | relative viability (NCI-H322M; first compound 50 µM): 0.931 | relative viability (NCI-H322M; first compound 158.11 µM): 0.693 | relative viability (NCI-H322M; first compound 500 µM): 0.634 | relative viability (NCI-H358; first compound 5 µM): 0.684 | relative viability (NCI-H358; first compound 15.81 µM): 0.769 | relative viability (NCI-H358; first compound 50 µM): 0.743 | relative viability (NCI-H358; first compound 158.11 µM): 0.347 | relative viability (NCI-H358; first compound 500 µM): 0.0758 | relative viability (NCI-H520; first compound 5 µM): 0.842 | relative viability (NCI-H520; first compound 15.81 µM): 1.09 | relative viability (NCI-H520; first compound 50 µM): 1.03 | relative viability (NCI-H520; first compound 158.11 µM): 0.412 | relative viability (NCI-H520; first compound 500 µM): 0.12 | relative viability (NCI-H596; first compound 5 µM): 1.02 | relative viability (NCI-H596; first compound 15.81 µM): 1.04 | relative viability (NCI-H596; first compound 50 µM): 1.14 | relative viability (NCI-H596; first compound 158.11 µM): 0.519 | relative viability (NCI-H596; first compound 500 µM): 0.0361 | relative viability (NCI-H647; first compound 5 µM): 1.16 | relative viability (NCI-H647; first compound 15.81 µM): 1.13 | relative viability (NCI-H647; first compound 50 µM): 0.951 | relative viability (NCI-H647; first compound 158.11 µM): 0.107 | relative viability (NCI-H647; first compound 500 µM): 0.0169 | relative viability (NCI-H727; first compound 5 µM): 0.251 | relative viability (NCI-H727; first compound 15.81 µM): 0.343 | relative viability (NCI-H727; first compound 50 µM): 0.2 | relative viability (NCI-H727; first compound 158.11 µM): 0.216 | relative viability (NCI-H727; first compound 500 µM): 0.0496 | relative viability (NCI-H838; first compound 5 µM): 1.04 | relative viability (NCI-H838; first compound 15.81 µM): 0.956 | relative viability (NCI-H838; first compound 50 µM): 0.905 | relative viability (NCI-H838; first compound 158.11 µM): 0.544 | relative viability (NCI-H838; first compound 500 µM): 0.0935 | relative viability (PC-14; first compound 5 µM): 0.941 | relative viability (PC-14; first compound 15.81 µM): 0.874 | relative viability (PC-14; first compound 50 µM): 0.928 | relative viability (PC-14; first compound 158.11 µM): 0.857 | relative viability (PC-14; first compound 500 µM): 1.02 | relative viability (UMC-11; first compound 5 µM): 0.881 | relative viability (UMC-11; first compound 15.81 µM): 1 | relative viability (UMC-11; first compound 50 µM): 0.992 | relative viability (UMC-11; first compound 158.11 µM): 0.282 | relative viability (UMC-11; first compound 500 µM): 0.0946
